Data as given in the supplement of paper PMC11451515.

Test system: SEM cells
Assay: cell viability relative to DMSO control; higher = less cytotoxic
Settings: 48 h
In short: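 Leukemia cells (NOMO1 or SEM, 500 cells/well; P12-Ichikawa, 1000 cells/well) were seeded in 5 μl in 1536-well plates after at least four passages of adaptation to each medium. They received library compounds in DMSO by pin dosing, 11 threefold points from 47 μM to 0.79 nM. Luminescence with CellTiter-Glo One was read after 48 h at 37°C. Viability is stated per plate relative to DMSO wells, with cell-free wells as background.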

[1] = HPLM + 10% dialyzed FBS, 0.000781 µM
[2] = HPLM + 10% dialyzed FBS, 0.00234 µM
[3] = HPLM + 10% dialyzed FBS, 0.00702 µM
[4] = HPLM + 10% dialyzed FBS, 0.0211 µM
[5] = HPLM + 10% dialyzed FBS, 0.0632 µM
[6] = HPLM + 10% dialyzed FBS, 0.19 µM
[7] = HPLM + 10% dialyzed FBS, 0.569 µM
[8] = HPLM + 10% dialyzed FBS, 1.71 µM
[9] = HPLM + 10% dialyzed FBS, 5.12 µM
[10] = HPLM + 10% dialyzed FBS, 15.4 µM
[11] = HPLM + 10% dialyzed FBS, 46.1 µM
[12] = RPMI 5 mM glucose + 10% FBS, 0.000781 µM
[13] = RPMI 5 mM glucose + 10% FBS, 0.00234 µM
[14] = RPMI 5 mM glucose + 10% FBS, 0.00702 µM
[15] = RPMI 5 mM glucose + 10% FBS, 0.0211 µM
[16] = RPMI 5 mM glucose + 10% FBS, 0.0632 µM
[17] = RPMI 5 mM glucose + 10% FBS, 0.19 µM
[18] = RPMI 5 mM glucose + 10% FBS, 0.569 µM
[19] = RPMI 5 mM glucose + 10% FBS, 1.71 µM
[20] = RPMI 5 mM glucose + 10% FBS, 5.12 µM
[21] = RPMI 5 mM glucose + 10% FBS, 15.4 µM
[22] = RPMI 5 mM glucose + 10% FBS, 46.1 µM
[23] = RPMI 5 mM glucose + 10% dialyzed FBS, 0.000781 µM
[24] = RPMI 5 mM glucose + 10% dialyzed FBS, 0.00234 µM
[25] = RPMI 5 mM glucose + 10% dialyzed FBS, 0.00702 µM
[26] = RPMI 5 mM glucose + 10% dialyzed FBS, 0.0211 µM
[27] = RPMI 5 mM glucose + 10% dialyzed FBS, 0.0632 µM
[28] = RPMI 5 mM glucose + 10% dialyzed FBS, 0.19 µM
[29] = RPMI 5 mM glucose + 10% dialyzed FBS, 0.569 µM
[30] = RPMI 5 mM glucose + 10% dialyzed FBS, 1.71 µM
[31] = RPMI 5 mM glucose + 10% dialyzed FBS, 5.12 µM
[32] = RPMI 5 mM glucose + 10% dialyzed FBS, 15.4 µM
[33] = RPMI 5 mM glucose + 10% dialyzed FBS, 46.1 µM

Row | Structure (SMILES) | cell viability [1] [%] | cell viability [2] [%] | cell viability [3] [%] | cell viability [4] [%] | cell viability [5] [%] | cell viability [6] [%] | cell viability [7] [%] | cell viability [8] [%] | cell viability [9] [%] | cell viability [10] [%] | cell viability [11] [%] | cell viability [12] [%] | cell viability [13] [%] | cell viability [14] [%] | cell viability [15] [%] | cell viability [16] [%] | cell viability [17] [%] | cell viability [18] [%] | cell viability [19] [%] | cell viability [20] [%] | cell viability [21] [%] | cell viability [22] [%] | cell viability [23] [%] | cell viability [24] [%] | cell viability [25] [%] | cell viability [26] [%] | cell viability [27] [%] | cell viability [28] [%] | cell viability [29] [%] | cell viability [30] [%] | cell viability [31] [%] | cell viability [32] [%] | cell viability [33] [%]
1 | CN1C(=O)/C=C(/NCCN(CCO)CCCC2=CC=C(C=C2)[N+]([O-])=O)N(C)C1=O | 104 | 113 | 121 | 114 | 108 | 136 | 121 | 119 | 120 | 108 | 66.6 | 112 | 111 | 131 | 118 | 109 | 138 | 133 | 123 | 95.2 | 105 | 55 | 103 | 123 | 135 | 111 | 144 | 138 | 136 | 137 | 121 | 107 | 50.8
2 | COc1cc2ncnc(Nc3cccc(Br)c3)c2cc1OC | 85.1 | 84.7 | 94.3 | 94.7 | 102 | 98 | 114 | 118 | 114 | 103 | 91.5 | 113 | 87.9 | 102 | 131 | 122 | 119 | 113 | 136 | 121 | 110 | 89.9 | 75 | 75.2 | 86 | 97.4 | 110 | 103 | 120 | 110 | 104 | 96.3 | 78.6
3 | Cc1cc(O)c2c(c1)C(=O)c1cc(O)cc(O)c1C2=O | 102 | 108 | 110 | 115 | 100 | 108 | 98.9 | 99.4 | 106 | 99.4 | 86.7 | 101 | 99.3 | 101 | 101 | 120 | 128 | 111 | 102 | 112 | 120 | 86.5 | 92.7 | 106 | 114 | 117 | 112 | 106 | 106 | 106 | 123 | 103 | 103
4 | O=C(CCCCCCC(=O)Nc1ccccc1)NO | 77.1 | 112 | 102 | 103 | 124 | 116 | 108 | 108 | 18.8 | 7.11 | 5.17 | 94.2 | 116 | 135 | 123 | 111 | 118 | 125 | 127 | 25 | 6.63 | 5.85 | 62.6 | 100 | 106 | 109 | 114 | 106 | 121 | 103 | 16.4 | 6.03 | 4.79
5 | N[C@@H](CC(=O)N1CCn2c(nnc2C(F)(F)F)C1)Cc1cc(F)c(F)cc1F | 111 | 113 | 110 | 118 | 105 | 105 | 99.8 | 117 | 107 | 41.9 | 93.3 | 100 | 104 | 98.1 | 102 | 132 | 113 | 106 | 112 | 109 | 50 | 96.4 | 96.9 | 118 | 103 | 97.4 | 103 | 108 | 96.8 | 98.8 | 92.3 | 40.1 | 98.6
6 | C[N+](C)([O-])CCNc1ccc(NCC[N+](C)(C)[O-])c2c1C(=O)c1c(O)ccc(O)c1C2=O | 101 | 85.4 | 83.8 | 84.5 | 88.8 | 77.1 | 69.7 | 46.4 | 7.02 | 20.1 | 10.1 | 101 | 95.8 | 105 | 89.9 | 73.5 | 56.6 | 55.8 | 28.8 | 7.28 | 12.8 | 9.18 | 88.9 | 86.1 | 93.8 | 87.7 | 79.5 | 68.2 | 62 | 33.5 | 8.62 | 18.8 | 12
7 | CN[C@@H]1C[C@H]2O[C@@](C)([C@@H]1OC)n1c3ccccc3c3c4c(c5c6ccccc6n2c5c31)C(=O)N[C@H]4O | 72.1 | 79.1 | 87.6 | 77.7 | 64 | 55.4 | 36.7 | 16.5 | 6.79 | 3.78 | 3.23 | 81.2 | 87.9 | 83.8 | 84.1 | 57.5 | 69.5 | 35.4 | 5.65 | 4.44 | 4.12 | 2.58 | 82.8 | 78 | 76.6 | 90.4 | 67.3 | 69.8 | 45 | 5.6 | 5.83 | 3.57 | 2.57
8 | O=c1[nH]cnc2c1ncn2[C@H]1CC[C@@H](CO)O1 | 85.7 | 97 | 104 | 102 | 88.3 | 101 | 102 | 110 | 99.8 | 90.5 | 69.4 | 85.1 | 86.6 | 98 | 95.8 | 90.8 | 86.4 | 99.9 | 94 | 83.4 | 60.8 | 47.4 | 77.6 | 86.1 | 84.3 | 85.2 | 77.7 | 97.6 | 105 | 92.7 | 99.5 | 67.8 | 70.3
